Data as given in patent publication US11478533B2, “Semaglutide for use in medicine” (Novo Nordisk A/S, priority 2020, dated 2022).

Experiments:
[1] = system: subjects with NASH; assay: Clinical Trial A: enhanced liver fibrosis (ELF) score; assay type: in vivo, human; details: week 72; for Change in enhanced liver fibrosis (ELF) at end of trial compared to baseline relative to placebo, ETD: all randomised subjects, estimated treatment difference vs placebo (ANCOVA)
From the text: In some embodiments the method of the invention reduces enhanced liver fibrosis (ELF). In some embodiments the term “enhanced liver fibrosis” (also referred to as ELF) as used herein refers to a score derived as a log-linear combination based on blood sample levels of hyaluronic acid (HA), amino-terminal propeptide of type III collagen (P3NP), and tissue inhibitor of metalloproteinase 1 (TIMP1) according to Formula (I): ELF=−7.412+0.681×ln(cHA)+0.775×ln(cP3NP)+0.494×ln(cTIMP1) (I) where cHA is the serum concentration of HA in ng/ml, cP3NP is the serum concentration of P3NP in ng/ml, and cTIMP1 is the serum concentration of TIMP1 in ng/ml.
A 72-week, randomised, double-blind, placebo-controlled, six-armed, parallel group, multicentre, multi-national phase 2 trial comparing once daily (OD) administration of semaglutide in three different doses (0.1 mg, 0.2 mg and 0.4 mg) with placebo in subjects with NASH was carried out. A total of 319 subjects received trial product, 302 subjects completed the trial, and 277 subjects had liver biopsy at trial week 72. Subjects received once daily (a) semaglutide of (i) 0.05 mg for 4 weeks and 0.1 mg for the remaining trial period, (ii) 0.05 mg for 4 weeks, 0.1 mg for 4 weeks, and 0.2 mg for the remaining trial period, (iii) 0.05 mg for 4 weeks, 0.1 mg for 4 weeks, 0.2 mg for 4 weeks, 0.3 mg for 4 weeks, and 0.4 mg for the remaining trial period, or (b) placebo in injection volumes corresponding to (i), (ii) or (iii). Administration was performed via subcutaneous injection using (a) an aqueous solution comprising 1.0 mg/ml semaglutide, 1.42 mg/ml disodium hydrogen phosphate dihydrate, 14.0 mg/ml propylene glycol, 5.50 mg/ml phenol at pH 7.4, or (b) a placebo solution comprising the same ingredients as (a) except no semaglutide. Inclusion criteria for subjects in the trial comprised (i) histologic evidence of NASH based on evaluation of a liver biopsy obtained up to 21 weeks before screening, (ii) a histological NAS >4 with a score of 1 or more in each sub-component of the score, and (iii) liver fibrosis stage 1, 2 or 3 according to the NASH-CRN. Screening was carried out prior to baseline in order to make assessments used to determine subject eligibility. Exclusion criteria for subjects in the trial comprised (i) documented causes of chronic liver disease other than NASH and (ii) no substantial alcohol consumption, defined in the trial as no more than 20 g ethanol per day for women or no more than 30 g ethanol per day for men. Baseline characteristics for all randomised subjects in the trial were as shown in Table A. The term “baseline” as used herein refers to the beginning of the trial prior to administration of semaglutide or placebo. […] The fibrosis stage was determined according to the Kleiner fibrosis classification.

[2] = system: subjects with NAFLD and increased liver stiffness; assay: Clinical Trial B: liver steatosis by MRI-PDFF; assay type: in vivo, human; details: 0.4 mg OD s.c.
Protocol: A randomised, double-blind, placebo-controlled, parallel group, multi-centre phase 1 trial was carried out to investigate the effect of 0.4 mg semaglutide once-daily (OD) in 67 subjects with NAFLD and increased liver stiffness. Subjects received once daily either (i) semaglutide of 0.05 mg for 4 weeks, 0.1 mg for 4 weeks, 0.2 mg for 4 weeks, 0.3 mg for 4 weeks, and then 0.4 mg for the remaining trial period, or (ii) placebo in injection volumes corresponding to (i). Administration was performed via subcutaneous injection using (a) an aqueous solution comprising 1.0 mg/ml semaglutide, 1.42 mg/ml disodium hydrogen phosphate dihydrate, 14.0 mg/ml propylene glycol, 5.50 mg/ml phenol at pH 7.4, or (b) a placebo solution comprising the same ingredients as (a) except no semaglutide. Inclusion criteria for subjects in the trial comprised (i) liver steatosis of at least 10% measured by magnetic resonance imaging proton density fat fraction (MRI-PDFF) at screening, (ii) liver stiffness between 2.50 and 4.63 kPa (both inclusive) measured by magnetic resonance elastography at screening, (iii) BMI between 25.0 and 40.0 kg/m^2 (both inclusive) at screening, (iv) liver stiffness >6.50 kPa measured via Fibroscan® (manufactured by Echosens, Paris, France) at screening, and (v) for subjects with type 2 diabetes mellitus only, diagnosis of type 2 diabetes mellitus was at least 180 days prior to screening and with HbA1c of no more than 9.5% at screening. Screening was carried out prior to baseline in order to make assessments used to determine subject eligibility. Exclusion criteria for subjects in the trial comprised (i) documented causes of chronic liver disease other than NAFLD including NASH and (ii) no substantial alcohol consumption, defined in the trial as no more than 20 g ethanol per day for women or no more than 30 g ethanol per day for men. Baseline characteristics for all randomised subjects in the trial were shown in Table B. MRI-PDFF is a determination of the percentage of fat in the entire liver and the method is described in e.g. Caussy et al. Hepatology. 2018 August; 68(2):763-772.

“N-epsilon26-[2-(2-{2-[2-(2-{2-[(S)-4-Carboxy-4-(17-carboxyheptadecanoyl-amino)butyrylamino]ethoxy}ethoxy)acetylamino]ethoxy}ethoxy)acetyl] [Aib8, Arg34]GLP-1-(7-37) [Semaglutide]” was tested, and the “Change in enhanced liver fibrosis (ELF) at end of trial compared to baseline relative to placebo, ETD” value (“Change … to baseline relative to placebo, ETD” for short) ([1]; 0.1 mg OD s.c.) was −0.35 [−0.57;, the “Change … to baseline relative to placebo, ETD” value ([1]; 0.2 mg OD s.c.) was −0.40 [−0.62; and the “Change … to baseline relative to placebo, ETD” value ([1]; 0.4 mg OD s.c.) was −0.57 [−0.79;. The “Reduction of ELF compared to placebo (in words)” value ([1]; all tested semaglutide dosages) was “reduced ELF significantly more compared to placebo”, the “Reduction of liver steatosis compared to placebo” value ([2]; 24 weeks of trial) was 30% and the “Subjects with at least 30% reduction in liver steatosis” value ([2]; 24 weeks of trial) was “about 65%”. For the same substance, the “Reduction of liver steatosis compared to placebo” value ([2]; 48 and 72 weeks of trial) was “about 50%”, the “Subjects with at least 30% reduction in liver steatosis” value ([2]; 48 and 72 weeks of trial) was 74-77% and the “Change in liver steatosis by MRI-PDFF compared to baseline, Estimated mean ratio to baseline” value (from here on “Change … Estimated mean ratio to baseline”) ([2]; trial week 24) was 0.64. The “Proportion of subjects with 30% or greater reduction in liver steatosis by MRI-PDFF compared to baseline” value ([2]; trial week 24) was 64.7 (p = 0.0006) %, the “Change … Estimated mean ratio to baseline” value ([2]; trial week 48) was 0.42 and the “Proportion of subjects with 30% or greater reduction in liver steatosis by MRI-PDFF compared to baseline” value ([2]; trial week 48) was 76.5 (p = 0.0001) %. The “Change … Estimated mean ratio to baseline” value ([2]; trial week 72) was 0.42 and the “Proportion of subjects with 30% or greater reduction in liver steatosis by MRI-PDFF compared to baseline” value ([2]; trial week 72) was 73.5 (p = 0.0006) %.
